From US7902190B2, “Indol derivatives, the method for preparing thereof and composition for the prevention and treatment of metabolic disorder containing the same as an active ingredient” (Korea Research Institute of Bioscience and Biotechnology, priority 2006, dated 2011)
“Also recorded” adds a separate entry of the source.

Experiments:
DGAT [1] = experiment: Assay for inhibitory activity against DGAT ([14C]triacylglycerol formation, rat microsomal protein as enzyme source); assay type: biochemical; settings: for DGAT (inhibition % in 25 μM) / DGAT (inhibition % in 5 μM): rat microsomal protein as enzyme source; for inhibitory activity against DGAT (in words): rat hepatic microsomal protein, 1,2-diacylglycerol and [14C]palmitoyl-CoA as substrates
Procedure: The following experiment was performed in order to examine the inhibitory activity of the indole derivatives of the present invention against DGAT. After enzymatic reaction between two substrates, 1,2-diacylglycerol (Sigma, D0138) and [^14C]palmitoyl-CoA (Amersham, CFA583), with the microsomal protein of rats serving as an enzyme source in accordance with Coleman et al, Methods Enzymol., 98-103, 1992, the resulting product [^14C] triacylglycerol was measured for radioactivity.
In detail, to a reaction buffer (175 mM Tris-HCl, pH 8.0, 20 μl bovine serum albumin (10 mg/ml), 100 mM MgCl2, 30 μM [^14C] palmitoyl-CoA (0.02 μCi, Amersham) and 200 μM 1,2-dioleoyl glycerol) was added 10 μl of a solution of the samples in dimethylsulfoxide (DMSO) and then 100-200 μl of an isolated microsomal protein, followed by reaction at 25° C. for 10 min. The reaction was terminated with 1.5 ml of a mixture of 80:20:2 2-propanol:heptane:water (v:v:v). Thereafter, the [^14C] triacylglycerol thus formed was separated. In this regard, 1 ml of heptane and 0.5 ml of distilled water were added to the reaction mixture, which was then shaken. 1 ml of the supernatant thus formed was mixed with 2 ml of an alkaline ethanol solution (ethanol:0.5 N sodium hydroxide:water=50:10:40, v:v:v), followed by shaking. After it was recovered, 0.65 ml of the supernatant thus formed was measured for radioactivity using an LSC (liquid scintillation counter). The inhibitory activity against DGAT was calculated according to the following Mathematical Formula 1.
T: Cpm of a test group in which a sample was added to an enzymatic buffer,
C: Cpm of a control in which no samples were added to an enzymatic buffer,
B: Cpm of a control in which a sample was added in the absence of any enzyme source.

DGAT [2] = experiment: Assay for inhibitory effect on DGAT in cell (triglyceride production from [14C]acetate in HepG2 cells); assay type: cell-based, human; settings: 10 μM; for Production Yield of Triglyceride (%): DMSO control taken as 100
Procedure: The effect of the indole derivatives of the present invention on DGAT was examined with HepG2 cells, hepatic cells derived from the human liver, as follows.
HepG2 cells, purchased from ATCC, were cultured in MEM (Minimum Essential Medium, 2 mM L-glutamine, Earle's BSS adjusted to contain 1.5 g/L sodium bicarbonate, 0.1 mM nonessential amino acids, and 1 mM sodium pyruvate), supplemented with 10% fetal bovine serum (FBS) and 1% antibiotics (100 U/ml penicillin and 100 µg/ml streptomycin) at 37° C. in a 5% CO2 incubator.
Intracellular DGAT activity was represented by the amount of triglycerides produced in the cultured HepG2 cells while the compounds (1, 6, 10, 11 and 15) of Chemical Formula 1 were assayed for inhibitory activity against DGAT by measuring the change in intracellular triglyceride production after the addition thereof.
Cells were plated at a density of 1×10^6 cell/ml per well into 24-well plates and incubated for 24 hours. Then, the medium was exchanged with FBS-free MEM. Thereafter, 0.2 mCi of [^14C]acetate (Amersham) was added as a substrate to the cells, followed by incubation for 18 hours. The production of triglycerides was catalyzed by DGAT so that DGAT activity was determined by the amount of the triglyceride product, which could be measured using radioactivity. For use, the samples were dissolved in dimethyl sulfoxide (DMSO). In a control, triglycerides were synthesized using DMSO without any sample, with the production yield thereof taken as 100.
The amount of the triglyceride products synthesized was determined as follows. […] 1 ml of the extract was concentrated with nitrogen gas. The total lipid residue thus formed was dissolved in an organic solvent mixture (chloroform:methanol=2:1) and loaded dropwise onto a thin layer chromatography plate (TLC; silica gel 60F254, 0.5 mm, Merck) using a mixture of 80:20:1 hexane:diethylether:acetic acid (v:v:v) as a developing solvent. After the separation of triglycerides (Rf value: 0.4) on TLC, the plate was brought into contact with an autoradiographic film for three hours, followed by image analysis (BAS-1500, Fuji Photo Film Co. Ltd.) to determine the [^14C] radioactivity of the triglycerides. The cells left after the extraction were suspended in 0.3 ml of a 0.1 N sodium hydroxide solution to measure the cellular protein concentration thereof.
The empirical values were obtained by dividing triglyceride radioactivity by protein level, with correction for experimental errors between test groups.

SPF ICR mice = experiment: Single-dose oral acute toxicity, SPF ICR mice; assay type: in vivo, mouse
Procedure: In addition, the compounds of the present invention were orally administered once at a dose of as high as 2,000 mg/kg into mice. In this regard, 7-week-old male SPF ICR mice (Dae Han Biolink Co. Ltd.) were acclimated to a new environment for one week and then, at 8 weeks of age, were divided into two groups of three. The test group was orally administered once with a dose of 2 g/kg of Compound 10 in a 0.5% CMC solution, while the control was administered with a 0.5% CMC (carboxymethyl cellulose) solution alone. They were monitored for death, clinical signs, change in body weight and the like for a couple of weeks. Autopsies were performed to examine the abnormality of organs.

| DGAT (inhibition % in 25 μM) (DGAT [1]) [%] | DGAT (inhibition % in 5 μM) (DGAT [1]) [%] | SMILES | biosynthesis of triglyceride in comparison with the control (in words) (DGAT [2]) | Production Yield of Triglyceride (%) (DGAT [2]) | further results |
| --- | --- | --- | --- | --- | --- |
| 11.52 |  | O=C(/C=C/c1c[nH]c2ccccc12)Nc1cccc(C(=O)O)c1 [Compound 6, 3-(3-1H-indol-3-yl-acryloylamino)-benzoic Acid] | produced smaller amounts of triglycerides than did the control | 92.5 ± 6.7 |  |
| −3.11 | −5.29 | O=C(/C=C/c1c[nH]c2ccccc12)Nc1cccc(C(=O)NCCN2CCCCC2)c1 [Compound 7, 3-(3-1H-indol-3-yl-acryloylamino)-N-(2-piperidin-1-yl-ethyl)-benzamide] |  |  |  |
| −0.38 | −11.04 | CN(C)CCn1cc(/C=C/C(=O)Nc2cccc(C(=O)NCc3ccco3)c2)c2ccccc21 [Compound 12, 3-{3[1-(2-Dimethylamino-ethyl)-1H-indol-3-yl]-acryloylamino}-N-furan-2-ylmethyl-benzamide] |  |  |  |
| 2.05 | 3.06 | O=C(/C=C/c1c[nH]c2ccccc12)Nc1cccc(C(=O)NCCCN2CCOCC2)c1 [Compound 8, 3-(3-1H-indol-3-yl-acryloylamino)-N-(3-morpholin-4-yl-propyl)-benzamide] |  |  |  |
| 39.82 | −10.09 | CC(=O)n1cc(/C=C/C(=O)Nc2cccc(C(=O)NCc3ccco3)c2)c2ccccc21 [Compound 16, 3-[3-(1-Acetyl-1H-indol-3-yl)-acryloylamino]-N-furan-2-ylmethyl-benzamide] |  |  |  |
| 19.36 |  | NC(=O)c1cccc(NC(=O)/C=C/c2c[nH]c3ccccc23)c1 [Compound 2, 3-(3-1H-indol-3-yl-acryloylamino)-benzamide] |  |  |  |
| 13.24 | 2.72 | O=C(/C=C/c1c[nH]c2ccccc12)Nc1cccc(C(=O)NCc2ccco2)c1 [Compound 9, N-furan-2-ylmethyl-3-(3-1H-indol-3-yl-acryloylamino)-benzamide] |  |  |  |
| 49.88 | 40.88 | O=C(/C=C/c1cn(S(=O)(=O)c2cccs2)c2ccccc12)Nc1cccc(C(=O)NCc2ccco2)c1 [Compound 15, N-furan-2-ylmethyl-3-[3-[1-(thiophene-2-sulfonyl)-1H-indol-3-yl]-acryloylamino]-benzamide] | produced smaller amounts of triglycerides than did the control; also recorded: highly inhibit the biosynthesis of triglyceride | 61.5 ± 7.1 | inhibitory activity against DGAT (in words) (DGAT [1]): potent inhibitory activity against DGAT in a dose-dependent manner; inhibition of the biosynthesis of triglycerides (DGAT [2]): 38.5% |
| 4.66 |  | NC(=O)c1cccc(NC(=O)CCc2c[nH]c3ccccc23)c1 [Compound 1, 3-(3-1H-indol-3-yl-propionylamino)-benzamide] | produced smaller amounts of triglycerides than did the control | 95.5 ± 5.7 |  |
| 64.13 | 54.09 | O=C(/C=C/c1cn(Cc2ccccc2)c2ccccc12)Nc1cccc(C(=O)NCc2ccco2)c1 [Compound 11, 3-[3-(1-Benzyl-1H-indol-3-yl)-acryloylamino]-N-furan-2-ylmethyl-benzamide] | produced smaller amounts of triglycerides than did the control; also recorded: highly inhibit the biosynthesis of triglyceride | 55.5 ± 7.2 | inhibitory activity against DGAT (in words) (DGAT [1]): potent inhibitory activity against DGAT in a dose-dependent manner; inhibition of the biosynthesis of triglycerides (DGAT [2]): 44.5% |
| 18.72 |  | COC(=O)c1cccc(NC(=O)/C=C/c2c[nH]c3ccccc23)c1 [Compound 4, 3-(3-1H-indol-3-yl-acryloylamino)-benzoic Acid Methyl Ester] |  |  |  |
| 50.89 | 43.19 | O=C(/C=C/c1cn(S(=O)(=O)Cc2ccccc2)c2ccccc12)Nc1cccc(C(=O)NCc2ccco2)c1 [Compound 14] |  |  | inhibitory activity against DGAT (in words) (DGAT [1]): potent inhibitory activity against DGAT in a dose-dependent manner |
| 0.08 |  | O=C(CCc1c[nH]c2ccccc12)Nc1cccc(C(=O)O)c1 [Compound 5, 3-(3-1H-indol-3-yl-propionylamino)-benzoic Acid] |  |  |  |
| 53.15 | −0.95 | CC(C)(C)OC(=O)Cn1cc(/C=C/C(=O)Nc2cccc(C(=O)NCc3ccco3)c2)c2ccccc21 [Compound 13, [3-(2-{3-[(Furan-2-ylmethyl)-carbamoyl]-phenylcarbamoyl}-vinyl)-indol-1-yl]-acetic acid-t-butyl Ester] |  |  |  |

| SMILES | DGAT (inhibition % in 25 μM) (DGAT [1]) [%] | DGAT (inhibition % in 5 μM) (DGAT [1]) [%] | biosynthesis of triglyceride in comparison with the control (in words) (DGAT [2]) | Production Yield of Triglyceride (%) (DGAT [2]) | further results |
| --- | --- | --- | --- | --- | --- |
| CC(C)(C)OC(=O)n1cc(/C=C/C(=O)Nc2cccc(C(=O)NCc3ccco3)c2)c2ccccc21 [Compound 10, 3-(2-3-[(Furan-2-ylMethyl)-Carbamoyl]-Phenylcarbamoyl-Vinyl)-Indole-1-Carboxylic Acid-t-Butyl Ester] | 78.68 | 60.22 | produced smaller amounts of triglycerides than did the control; also recorded: highly inhibit the biosynthesis of triglyceride | 49.2 ± 5.7 | inhibitory activity against DGAT (in words) (DGAT [1]): potent inhibitory activity against DGAT in a dose-dependent manner; oral acute toxicity (in words) (SPF ICR mice; administered once at a dose of up to 2,000 mg/kg): no oral acute toxicity; Mortality (No. of Dead/No of Tested) (SPF ICR mice; single oral dose 2 g/kg in 0.5% CMC, monitored two weeks): 0/3; Body Weight (g) Day 0 (SPF ICR mice; single oral dose 2 g/kg, Day 0, Mean ± SD): 36 ± 0.5 g; Body Weight (g) Day 1 (SPF ICR mice; single oral dose 2 g/kg, Day 1, Mean ± SD): 38 ± 1.0 g; Body Weight (g) Day 3 (SPF ICR mice; single oral dose 2 g/kg, Day 3, Mean ± SD): 38 ± 0.2 g; Body Weight (g) Day 7 (SPF ICR mice; single oral dose 2 g/kg, Day 7, Mean ± SD): 39 ± 1.2 g; Body Weight (g) Day 14 (SPF ICR mice; single oral dose 2 g/kg, Day 14, Mean ± SD): 42 ± 2.0 g; inhibition of the biosynthesis of triglycerides (DGAT [2]): 50.8% |
